In the supplement of paper PMC11451515:

Tests used:
Conditions in all cases: 48 h
[1] = test system: NOMO1; assay: cell viability relative to DMSO control; higher = less cytotoxic
Method in brief: (§1)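 Viability was expressed as a per-plate percentage of DMSO wells, with cell-free wells as background. Leukemia cells (NOMO1 or SEM at 500 cells/well, P12-Ichikawa at 1000 cells/well) were adapted for at least four passages in each medium and seeded in 1536-well plates (5 μl). Library compounds in DMSO were pin-dosed over an 11-point threefold series from 47 μM to 0.79 nM, and CellTiter-Glo One luminescence was read after 48 h at 37°C.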

[2] = test system: P12-Ichikawa; assay: as above
Method in brief: as §1

[3] = test system: SEM cells; assay: as above
Method in brief: as §1

[4] = test system: NOMO1; assay: AUC of viability dose-response curve (% viability x log10 dose units); higher = less sensitive
Method in brief: (§2)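 Leukemia cells adapted to each medium were seeded in 1536-well plates (500 or 1000 cells/well) and given library compounds in DMSO for 48 h at 37°C. The 11 threefold doses spanned 47 μM to 0.79 nM, and CellTiter-Glo One luminescence was normalised per plate to DMSO and cell-free wells before four-parameter log-logistic fitting on log10 dose. Area under the curve was integrated with the trapezoidal rule, scaling curves above full viability and removing curves that failed quality control.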

[5] = test system: P12-Ichikawa; assay: as above
Method in brief: as §2

[6] = test system: SEM cells; assay: as above
Method in brief: as §2

CC/1=C(/N2[C@H](SC1)[C@H](NC(=O)C(N)C3=CC=CC=C3)C2=O)C(O)=O (stereo partly drawn)
cell viability [%]
Conditions	[1]	[2]	[3]
HPLM + 10% dialyzed FBS, 0.000781 µM	106	119	99.3
HPLM + 10% dialyzed FBS, 0.00234 µM	118	122	113
HPLM + 10% dialyzed FBS, 0.00702 µM	118	129	119
HPLM + 10% dialyzed FBS, 0.0211 µM	137	133	110
HPLM + 10% dialyzed FBS, 0.0632 µM	135	136	108
HPLM + 10% dialyzed FBS, 0.19 µM	136	135	120
HPLM + 10% dialyzed FBS, 0.569 µM	145	133	120
HPLM + 10% dialyzed FBS, 1.71 µM	152	136	124
HPLM + 10% dialyzed FBS, 5.12 µM	137	144	114
HPLM + 10% dialyzed FBS, 15.4 µM	106	136	126
HPLM + 10% dialyzed FBS, 46.1 µM	141	138	131
RPMI 5 mM glucose + 10% FBS, 0.000781 µM	–	–	128
RPMI 5 mM glucose + 10% FBS, 0.00234 µM	–	–	118
RPMI 5 mM glucose + 10% FBS, 0.00702 µM	–	–	117
RPMI 5 mM glucose + 10% FBS, 0.0211 µM	–	–	132
RPMI 5 mM glucose + 10% FBS, 0.0632 µM	–	–	155
RPMI 5 mM glucose + 10% FBS, 0.19 µM	–	–	138
RPMI 5 mM glucose + 10% FBS, 0.569 µM	–	–	129
RPMI 5 mM glucose + 10% FBS, 1.71 µM	–	–	141
RPMI 5 mM glucose + 10% FBS, 5.12 µM	–	–	136
RPMI 5 mM glucose + 10% FBS, 15.4 µM	–	–	122
RPMI 5 mM glucose + 10% FBS, 46.1 µM	–	–	131
RPMI 5 mM glucose + 10% dialyzed FBS, 0.000781 µM	109	–	115
RPMI 5 mM glucose + 10% dialyzed FBS, 0.00234 µM	135	–	119
RPMI 5 mM glucose + 10% dialyzed FBS, 0.00702 µM	123	–	137
RPMI 5 mM glucose + 10% dialyzed FBS, 0.0211 µM	148	–	143
RPMI 5 mM glucose + 10% dialyzed FBS, 0.0632 µM	145	–	129
RPMI 5 mM glucose + 10% dialyzed FBS, 0.19 µM	132	–	140
RPMI 5 mM glucose + 10% dialyzed FBS, 0.569 µM	149	–	132
RPMI 5 mM glucose + 10% dialyzed FBS, 1.71 µM	137	–	142
RPMI 5 mM glucose + 10% dialyzed FBS, 5.12 µM	154	–	132
RPMI 5 mM glucose + 10% dialyzed FBS, 15.4 µM	146	–	130
RPMI 5 mM glucose + 10% dialyzed FBS, 46.1 µM	130	–	134

AUC of viability dose-response curve
Conditions	[4]	[5]	[6]
HPLM + 10% dialyzed FBS	457	461	437
RPMI 5 mM glucose + 10% FBS	459	472	464
RPMI 5 mM glucose + 10% dialyzed FBS	464	473	467

COc1cc(N2CCC(N(C)C)CC2)ccc1Nc1ncc(Cl)c(Nc2ccccc2P(C)(C)=O)n1
cell viability [%]
Conditions	[1]	[2]	[3]
HPLM + 10% dialyzed FBS, 0.000781 µM	–	110	117
HPLM + 10% dialyzed FBS, 0.00234 µM	–	115	112
HPLM + 10% dialyzed FBS, 0.00702 µM	–	110	116
HPLM + 10% dialyzed FBS, 0.0211 µM	–	113	114
HPLM + 10% dialyzed FBS, 0.0632 µM	–	117	110
HPLM + 10% dialyzed FBS, 0.19 µM	–	115	82.3
HPLM + 10% dialyzed FBS, 0.569 µM	–	87.9	51
HPLM + 10% dialyzed FBS, 1.71 µM	–	40.5	28.3
HPLM + 10% dialyzed FBS, 5.12 µM	–	13.6	17.7
HPLM + 10% dialyzed FBS, 15.4 µM	–	18.3	11.9
HPLM + 10% dialyzed FBS, 46.1 µM	–	30.7	5.99
RPMI 5 mM glucose + 10% FBS, 0.000781 µM	123	112	114
RPMI 5 mM glucose + 10% FBS, 0.00234 µM	116	118	105
RPMI 5 mM glucose + 10% FBS, 0.00702 µM	130	123	114
RPMI 5 mM glucose + 10% FBS, 0.0211 µM	118	122	109
RPMI 5 mM glucose + 10% FBS, 0.0632 µM	124	121	128
RPMI 5 mM glucose + 10% FBS, 0.19 µM	115	104	95.4
RPMI 5 mM glucose + 10% FBS, 0.569 µM	111	102	57.8
RPMI 5 mM glucose + 10% FBS, 1.71 µM	102	82.2	18.2
RPMI 5 mM glucose + 10% FBS, 5.12 µM	21.3	11.9	8.88
RPMI 5 mM glucose + 10% FBS, 15.4 µM	23.8	12.5	6.45
RPMI 5 mM glucose + 10% FBS, 46.1 µM	23.2	23.6	4.89
RPMI 5 mM glucose + 10% dialyzed FBS, 0.000781 µM	115	111	–
RPMI 5 mM glucose + 10% dialyzed FBS, 0.00234 µM	110	113	–
RPMI 5 mM glucose + 10% dialyzed FBS, 0.00702 µM	128	117	–
RPMI 5 mM glucose + 10% dialyzed FBS, 0.0211 µM	117	124	–
RPMI 5 mM glucose + 10% dialyzed FBS, 0.0632 µM	123	126	–
RPMI 5 mM glucose + 10% dialyzed FBS, 0.19 µM	124	127	–
RPMI 5 mM glucose + 10% dialyzed FBS, 0.569 µM	107	107	–
RPMI 5 mM glucose + 10% dialyzed FBS, 1.71 µM	94.7	106	–
RPMI 5 mM glucose + 10% dialyzed FBS, 5.12 µM	31.4	30.8	–
RPMI 5 mM glucose + 10% dialyzed FBS, 15.4 µM	21.3	19.3	–
RPMI 5 mM glucose + 10% dialyzed FBS, 46.1 µM	27.6	31.5	–

AUC of viability dose-response curve
Conditions	[4]	[5]	[6]
HPLM + 10% dialyzed FBS	333	338	288
RPMI 5 mM glucose + 10% FBS	374	361	294
RPMI 5 mM glucose + 10% dialyzed FBS	375	380	287

O=C1NC(=O)/C(=C/c2ccc(-c3ccc(F)cc3O)o2)S1
cell viability [%]
Conditions	[1]	[2]	[3]
HPLM + 10% dialyzed FBS, 0.000781 µM	106	113	127
HPLM + 10% dialyzed FBS, 0.00234 µM	126	117	118
HPLM + 10% dialyzed FBS, 0.00702 µM	125	116	110
HPLM + 10% dialyzed FBS, 0.0211 µM	130	121	122
HPLM + 10% dialyzed FBS, 0.0632 µM	127	112	123
HPLM + 10% dialyzed FBS, 0.19 µM	114	116	111
HPLM + 10% dialyzed FBS, 0.569 µM	125	108	111
HPLM + 10% dialyzed FBS, 1.71 µM	91.8	107	102
HPLM + 10% dialyzed FBS, 5.12 µM	103	97.7	124
HPLM + 10% dialyzed FBS, 15.4 µM	82.7	97.9	94.1
HPLM + 10% dialyzed FBS, 46.1 µM	72.9	89.7	87.1
RPMI 5 mM glucose + 10% FBS, 0.000781 µM	113	116	–
RPMI 5 mM glucose + 10% FBS, 0.00234 µM	108	117	–
RPMI 5 mM glucose + 10% FBS, 0.00702 µM	104	112	–
RPMI 5 mM glucose + 10% FBS, 0.0211 µM	114	112	–
RPMI 5 mM glucose + 10% FBS, 0.0632 µM	112	112	–
RPMI 5 mM glucose + 10% FBS, 0.19 µM	105	111	–
RPMI 5 mM glucose + 10% FBS, 0.569 µM	103	102	–
RPMI 5 mM glucose + 10% FBS, 1.71 µM	94.7	90.4	–
RPMI 5 mM glucose + 10% FBS, 5.12 µM	95.7	90.1	–
RPMI 5 mM glucose + 10% FBS, 15.4 µM	92.7	80	–
RPMI 5 mM glucose + 10% FBS, 46.1 µM	84.9	65.7	–
RPMI 5 mM glucose + 10% dialyzed FBS, 0.000781 µM	112	115	114
RPMI 5 mM glucose + 10% dialyzed FBS, 0.00234 µM	117	120	129
RPMI 5 mM glucose + 10% dialyzed FBS, 0.00702 µM	114	121	120
RPMI 5 mM glucose + 10% dialyzed FBS, 0.0211 µM	103	117	122
RPMI 5 mM glucose + 10% dialyzed FBS, 0.0632 µM	113	117	112
RPMI 5 mM glucose + 10% dialyzed FBS, 0.19 µM	116	121	121
RPMI 5 mM glucose + 10% dialyzed FBS, 0.569 µM	91.6	117	111
RPMI 5 mM glucose + 10% dialyzed FBS, 1.71 µM	93.9	88.2	84.6
RPMI 5 mM glucose + 10% dialyzed FBS, 5.12 µM	91.7	89.5	87.3
RPMI 5 mM glucose + 10% dialyzed FBS, 15.4 µM	75.8	84.3	98.6
RPMI 5 mM glucose + 10% dialyzed FBS, 46.1 µM	66.9	72.4	74.8

AUC of viability dose-response curve
Conditions	[4]	[5]	[6]
HPLM + 10% dialyzed FBS	430	447	445
RPMI 5 mM glucose + 10% FBS	443	420	419
RPMI 5 mM glucose + 10% dialyzed FBS	422	427	427
